The values that follow are results of earlier work, collected in patent publication US7612060B2, “Triazoles and methods of use” (Amgen Inc., priority 2004, dated 2009).

Where no end group is shown, it is not given here.

The conditions of the data set: reported.

Regarding RPPGFSPFR [BK, Bradykinin], the “half-life of BK in plasma” value is recorded as “approximately 17 seconds”.
